# Patent US10695346B2, “4,6-pyrimidinylene derivatives and uses thereof” (Dana-Farber Cancer Institute, Inc., priority 2015, dated 2020)
# What was measured:
# PIP4K2A = target: T1, PIP4K2A (Homo sapiens, UniProt P48426); test: ADP-GLO assay on PIP4K2A; type: biochemical; settings: 0.01 mM ATP, 0.05 mM diC8 PI(5)P
# T1 sequence (P48426 1-406): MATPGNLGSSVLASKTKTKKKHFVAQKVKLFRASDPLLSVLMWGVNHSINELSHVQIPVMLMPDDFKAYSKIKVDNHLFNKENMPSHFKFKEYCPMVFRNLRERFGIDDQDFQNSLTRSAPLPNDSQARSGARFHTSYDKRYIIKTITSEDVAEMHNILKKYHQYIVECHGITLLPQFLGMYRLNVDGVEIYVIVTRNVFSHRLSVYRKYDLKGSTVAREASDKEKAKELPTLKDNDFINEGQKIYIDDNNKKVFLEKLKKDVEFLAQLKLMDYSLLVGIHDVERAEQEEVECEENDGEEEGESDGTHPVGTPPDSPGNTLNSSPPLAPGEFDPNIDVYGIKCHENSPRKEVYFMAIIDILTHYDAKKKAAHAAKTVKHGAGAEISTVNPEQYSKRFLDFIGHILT
# Description: After a further incubation of 40 minutes, 40 μl of Kinase Detection Buffer was added. After a further incubation of 40 min, the […] was read on […] ENVISION for 1 sec/well.
# [1] = test system: TP53 wild type MCF7 cells; test: Cell proliferation assay (Cell TITER-GLO); settings: even at 5 μM; FIG. 3D
# Description: To determine cell proliferation, cells were plated at 2×10^3 cells per well of 96-well plate. Cells were incubated and assayed at indicated times using Cell TITER-GLO Luminescent Cell Viability assay (Promega). Cells were allowed to equilibrate to room temperature for 15 minutes, then an equal volume of the Cell TITER-GLO reagent was added to wells and incubated for 15 minutes on an orbital shaker. Luminescence was recorded according to the manufacturer's protocol.
SMILES,IC50 (PIP4K2A),inhibition of TP53 wild type MCF7 cells [1]
"CN(C)C/C=C/C(=O)NC1CCCC(C(=O)Nc2cccc(Nc3cc(-c4cnc5[nH]ccc5c4)ncn3)c2)C1 (centres unmarked) [THZ-CE-A-4-9, (E)-N-(3-((6-(1H-pyrrolo[2,3-b]pyridin-5-yl)pyrimidin-4-yl)amino)phenyl)-3-(4-(dimethylamino)but-2-enamido)cyclohexane-1-carboxamide]",250 nM,
"CN(C)C/C=C/C(=O)Nc1ccc(C(=O)Nc2cccc(Nc3cc(-c4cnc5[nH]ccc5c4)ncn3)c2)cc1 [Compound 8, (E)-N-(3-((6-(1H-pyrrolo[2,3-b]pyridin-5-yl)pyrimidin-4-yl)amino)phenyl)-4-(4-(dimethylamino)but-2-enamido)benzamide]",,didn't inhibit
